Results from patent US11534457B2, “Use of dextran sulfate” (priority 2017, dated 2022).

System: severe traumatic brain injury (sTBI)
Assay: sTBI in rats, brain gene expression arrays and pathway analysis (Example 9)
Type: in vivo, Male Wistar rats
Design: key to z score, canonical pathway Dendritic Cell Maturation / z score, canonical pathway Adrenomedullin Signaling pathway / z score, canonical pathway Endothelin-1 Signaling / effect on canonical pathway Adrenomedullin Signaling pathway / effect on canonical pathway Endothelin-1 Signaling / effect on canonical pathway Dendritic Cell Maturation / Ingenuity canonical pathway Adrenomedullin signaling pathway, z score / Ingenuity canonical pathway FLT3 Signaling in Hematopoietic Progenitor Cells, z score / Ingenuity canonical pathway Opioid Signaling Pathway, z score / Ingenuity canonical pathway VDR/RXR Activation, z score / Ingenuity canonical pathway Neuropathic Pain Signaling In Dorsal Horn Neurons, z score / Ingenuity canonical pathway STAT3 Pathway, z score / Ingenuity canonical pathway IL-1 Signaling, z score / Ingenuity canonical pathway IL-6 Signaling, z score / Ingenuity canonical pathway NF-κB Signaling, z score / Ingenuity canonical pathway Role of NFAT in Cardiac Hypertrophy, z score / Ingenuity canonical pathway PPARα/RXRα Activation, z score: *: ambiguous effect
Conditions: for effect of TBI on molecular processes and diseases: given 30 minutes after injury; for TBI-induced alterations in neurodegeneration and scarring-related canonical pathways: given within 30 minutes of TBI
Description: The experimental protocol used in this study was approved by the Ethical Committee of the Catholic University of Rome, according to international standards and guidelines for animal care. Male Wistar rats of 300-350 g body weight were fed with standard laboratory diet and water ad libitum in a controlled environment. As the anesthetic mixture, the animals received 35 mg/kg b.w. ketamine and 0.25 mg/kg body weight midazolam by i.p. injection. Severe traumatic brain injury (sTBI) was induced by dropping a 450 g weight from 2 m height on to the rat head that had been protected by a metal disk previously fixed on the skull, according to the “weight drop” impact acceleration model (Marmarou et al., A new model of diffuse brain injury in rats. Part I: Pathophysiology and biomechanics. J Neurosurg. 1994; 80: 291-300). […] At the end of each period of treatment, rats were anesthetized again and then immediately sacrificed.
LMW-DS (Tikomed AB) was provided at a stock concentration of 20 mg/ml and was kept in a temperature-monitored refrigerator at 4° C. LMW-DS aliquots were diluted to the appropriate dosing concentration in sterile saline prior to delivery of a single subcutaneous injection.
Three doses of LMW-DS were administered subcutaneously 30 minutes post-TBI. The animals were sacrificed at 2 days post-TBI. The animals were divided into the following subgroups:
Three doses of LMW-DS were administered subcutaneously 30 minutes post-TBI. The animals were sacrificed at 7 days post-TBI. The animals were divided into the following subgroups:
An in vivo craniectomy was performed on all animals during anesthesia. After carefully removing the rat's skull, the brain was exposed and removed with a surgical spatula and quickly dropped in RNALater and preserved at 4° C. for further processing.
RNA extraction and array processing was carried out by SourceBioscience. The arrays used were the Agilent Rat expression arrays.
Statistical analysis was carried out using the Metaboanalyst software package. Gene expression changes of 10% with a p<0.05 were regarded as significant.
Pathway analysis of the differentially regulated genes was carried out using the Ingenuity pathway analysis package. The analysis was performed with special reference to pathways and molecular processes and diseases associated with neurodegenerative disease, including dementia, Alzheimer's disease, ALS, TBI and stroke, and with scarring and fibrosis, including glaucoma and normal pressure hydrocephalus (NPH) after subarachnoid haemorrhage.

[1] = TBI + 15 mg/kg repeat dose LMW-DS, after 7 days, TBI: Inhibited
[2] = TBI + 15 mg/kg repeated dose LMW-DS, 7 days after TBI
[3] = TBI + 15 mg/kg repeated dose LMW-DS, 7 days after TBI, relative to control

## low molecular weight dextran sulfate [LMW-DS]
[1]
  Diseases or functions annotation: Differentiation of bone cells: Inhibited
  Diseases or functions annotation: Differentiation of connective tissue cells: Inhibited
  Diseases or functions annotation: Digestive system cancer: Inhibited
  Diseases or functions annotation: Epithelial neoplasm: Inhibited
  Diseases or functions annotation: Formation of cellular protrusions: Activated
  Diseases or functions annotation: Formation of intercellular junctions: Activated
  Diseases or functions annotation: Learning: Activated
  Diseases or functions annotation: Microtubule dynamics: Activated
  Diseases or functions annotation: Migration of cells: Activated
  Diseases or functions annotation: Morphogenesis of neurons: Activated
  Diseases or functions annotation: Neurotransmission: Activated
  Diseases or functions annotation: Non-hematological solid tumor: Inhibited
  Diseases or functions annotation: Non-melanoma solid tumor: Inhibited
  Diseases or functions annotation: Nonhematologic malignant neoplasm: Inhibited
  Diseases or functions annotation: Organization of cytoplasm: Activated
  Diseases or functions annotation: Organization of cytoskeleton: Activated
  Diseases or functions annotation: Quantity of Ca^2+: Activated
  Diseases or functions annotation: Quantity of carbohydrate: Inhibited
  Diseases or functions annotation: Quantity of cells: Activated
  Diseases or functions annotation: Size of body: Activated
  Diseases or functions annotation: Transport of ion: Activated
  Diseases or functions annotation: Transport of metal: Activated
  Diseases or functions annotation: Transport of molecule: Activated
  Diseases or functions annotation: Tumorigenesis of tissue: Inhibited
[2]
  Ingenuity canonical pathway: 3-phosphoinositide Degradation: Activated
  Ingenuity canonical pathway: Acute Phase Response Signaling: Inhibited
  Ingenuity canonical pathway: Adrenomedullin signaling pathway: Inhibited
  Ingenuity canonical pathway: B Cell Receptor Signaling: Inhibited
  Ingenuity canonical pathway: Ephrin Receptor Signaling: Activated
  Ingenuity canonical pathway: Fc Epsilon RI Signaling: Inhibited
  Ingenuity canonical pathway: G Beta Gamma Signaling: Activated
  Ingenuity canonical pathway: NF-κB Signaling: Activated
  Ingenuity canonical pathway: Opioid Signaling Pathway: Activated
  Ingenuity canonical pathway: Role of NFAT in Cardiac Hypertrophy: Activated
  Ingenuity canonical pathway: Role of NFAT in Regulation of the Immune Response: Activated
  Ingenuity canonical pathway: Signaling by Rho Family GTPases: Activated
  Ingenuity canonical pathway: Superpathway of Inositol Phosphate Compounds: Activated
  Ingenuity canonical pathway: Synaptic Long Term Depression: Activated
  z score: Abdominal cancer: −2.015
  z score: Abdominal neoplasm: −1.116
  z score: Adenocarcinoma: −0.944
  z score: Branching of cells: 0.397
  z score: Carcinoma: −0.358
  z score: Cell movement: 0.154
  z score: Cell-cell contact: 1.504
  z score: Concentration of hormone: 0.825
  z score: Concentration of lipid: −0.204
  z score: Dendritic growth/branching: −0.169
  z score: Development of connective tissue cells: −0.005
  z score: Development of gap junctions: 0.849
  z score: Development of neurons: 0.688
  z score: Developmental process of synapse: 0.849
  z score: Differentiation of bone cells: −0.237
  z score: Differentiation of connective tissue cells: −0.011
  z score: Digestive organ tumor: −1.481
  z score: Digestive system cancer: −1.513
  z score: Epithelial neoplasm: −0.999
  z score: Extracranial solid tumor: 0.529
  z score: Formation of cellular protrusions: 1.183
  z score: Formation of intercellular junctions: 0.391
  z score: Gastrointestinal tumor: −1.284
  z score: Hematologic cancer: −2.216
  z score: Hematopoietic neoplasm: −2.027
  z score: Learning: 0.469
  z score: Microtubule dynamics: 1.962
  z score: Migration of cells: 0.271
  z score: Morphogenesis of neurons: 0.205
  z score: Neurotransmission: 1.214
  z score: Non-hematologic malignant neoplasm: −0.223
  z score: Non-hematological solid tumor: −0.913
  z score: Non-melanoma solid tumor: −1.478
  z score: Obesity: 2.18
  z score: Organization of cytoplasm: 1.922
  z score: Organization of cytoskeleton: 1.922
  z score: Quantity of carbohydrate: −0.017
  z score: Quantity of cells: 0.493
  z score: Seizure disorder: 1.376
  z score: Size of body: 0.67
  z score: Skin lesion: 0.532
  z score: Transport of ion: 1.109
  z score: Transport of metal: 1
  z score: Transport of molecule: 1.143
  z score: Tumorigenesis of tissue: −1.333
[3]
  Ingenuity canonical pathway 3-phosphoinositide Degradation, z score: 2
  Ingenuity canonical pathway Acute Phase Response Signaling, z score: −0.447
  Ingenuity canonical pathway Adrenomedullin signaling pathway, z score: −0.378
  Ingenuity canonical pathway B Cell Receptor Signaling, z score: −0.447
  Ingenuity canonical pathway Ephrin Receptor Signaling, z score: 2.236
  Ingenuity canonical pathway FLT3 Signaling in Hematopoietic Progenitor Cells, z score: *
  Ingenuity canonical pathway Fc Epsilon RI Signaling, z score: −1
  Ingenuity canonical pathway G Beta Gamma Signaling, z score: 2.236
  Ingenuity canonical pathway IL-1 Signaling, z score: *
  Ingenuity canonical pathway IL-6 Signaling, z score: *
  Ingenuity canonical pathway NF-κB Signaling, z score: 0.447
  Ingenuity canonical pathway Neuropathic Pain Signaling In Dorsal Horn Neurons, z score: *
  Ingenuity canonical pathway Opioid Signaling Pathway, z score: 0.816
  Ingenuity canonical pathway Role of NFAT in Cardiac Hypertrophy, z score: 0.447
  Ingenuity canonical pathway Role of NFAT in Regulation of the Immune Response, z score: 2.236
  Ingenuity canonical pathway Signaling by Rho Family GTPases, z score: 1
  Ingenuity canonical pathway Superpathway of Inositol Phosphate Compounds, z score: 2
  Ingenuity canonical pathway Synaptic Long Term Depression, z score: 1.342
2 days
  effect of TBI on molecular processes and diseases: mostly abolished
  TBI-induced alterations in neurodegeneration and scarring-related canonical pathways: counteracted
7 days
  effect of TBI on molecular processes and diseases: mostly abolished
  TBI-induced alterations in neurodegeneration and scarring-related canonical pathways: counteracted
